Laboratory results published in patent US20230263792A1, “USE OF 2,3,5-SUBSTITUTED THIOPHENE COMPOUND FOR PREVENTING, ALLEVIATION, OR TREATING MASTOCYTOSIS” (PHAROS IBIO CO., LTD, priority 2020, published 2023).

Key:
[1] = test system: HMC-1.2 cell line (imatinib-resistant cell line, having c-kit G560V/D816V mutation); test: Growth inhibition of mastocytosis cell line HMC-1.2; type: cell-based; conditions: HMC-1.2, 72 hours
Experimental: [Worded in the source for another cell line; this cell line is reported under the same test.] Specifically, 100 μl of a Ba/F3 cell line with a c-kit D816V mutation (FIG. 1) was added to each well of a 96-well plate at a concentration of 10,000 cells/100 μl. […] As the control compounds, imatinib and sunitinib which are c-kit inhibitors were used.

[2] = test system: inflammatory response caused by mastocytosis (HMC-1.2 mouse model); test: Spleen/body weight ratio in mastocytosis mouse model (inflammatory response); type: in vivo, NOD SCID female mice
Experimental: (§1) As mice, 6-8-week-old NOD SCID female mice (18 to 22 g) (GemPharmatech Co., Ltd.) were prepared. Mice were acclimatized for 7 days before use in the experiment, and mice with abnormal health were excluded from the experiment. Mice were bred in a cage (300×180×150 mm) at a 22±3° C. and a relative humidity of 40% to 70% with a 12-hr light/12-hr dark cycle. Mice were allowed access to sterilized dry granular food (Beijing Keaoxieli Feed Co., Ltd., Beijing, China) and water ad libitum for the entire experimental period except for the period specified in the protocol.
50 ml of HMC-1.2 cells suspension-cultured in a 75T flask were placed in a conical tube and centrifuged at 1,200 rpm for 2 minutes, centrifuged with DPBS (Dulbecco's Phosphate-Buffered Saline, Welgene) at 1,200 rpm for 2 minutes, washed, and then suspended in RPMI1640 (Welgene) without antibiotics and fetal bovine serum (FBS). Then, the cells were stained with trypan blue, counted with a hemocytometer, and then HMC-1.2 cells (1×10^6) in a mixture of 0.1 ml L-15 and Matrigel (BD, cat. No. 356234) (1:1) were subcutaneously injected into the right flanks of mice anesthetized by intraperitoneal administration of Avertin (250 mg/kg), thus inducing tumors.
Thereafter, when the average tumor volume reached 150 to 200 mm^3, 4 mice were assigned to each group so that the average tumor volume at each group and treatment time was the same between the groups. Then, each of imatinib at a dose of 90 mg/kg, sunitinib at doses of 20 and 40 mg/kg, and PHI-101 at doses of 7, 20, 40 and 80 mg/kg was administered orally to the mice once daily for 3 weeks. For oral administration, each compound was dissolved in 5% 1-methyl-2-pyrrolidone and then completely mixed in 15% Kolliphor, 30% PEG E400 HS15 and 50% 0.05M citric acid.
Specifically, 3 weeks after administering each drug to the mastocytosis mouse model of Example 3-1, the mice were sacrificed, the body weight and spleen weight were measured using a digital scale, and then the spleen/body weight ratio was calculated.

[3] = test system: neoplastic mast cells with the c-KIT mutation D816V; conditions: literature, background; cited from earlier work
[4] = test system: neoplastic mast cells exhibiting wild type (wt) KIT or the rarely occurring F522C-mutated variant of KIT; conditions: literature, background; cited from earlier work
[5] = test system: HMC-1.2 cells subcutaneous tumor; test: Tumor growth inhibition in mastocytosis mouse model with HMC-1.2 cell line; type: in vivo, NOD SCID female mice
Experimental: as §1
50 ml of HMC-1.2 cells suspension-cultured in a 75T flask were placed in a conical tube and centrifuged at 1,200 rpm for 2 minutes, centrifuged with DPBS (Dulbecco's Phosphate-Buffered Saline, Welgene) at 1,200 rpm for 2 minutes, washed, and then suspended in RPMI1640 (Welgene) without antibiotics and fetal bovine serum (FBS).
Thereafter, when the average tumor volume reached 150 to 200 mm^3, 4 mice were assigned to each group so that the average tumor volume at each group and treatment time was the same between the groups.
In addition, the width and length of the tumor were measured using a caliper at 3-day intervals, and the tumor volume was calculated using the following equation.
(V: tumor volume, W: tumor width, and L: tumor length)
In addition, the mice were sacrificed 3 weeks after the start of oral administration of each drug and the tumor weight was measured using a digital scale. For each data, one-way ANOVA was used to test the significance of each group.

[6] = 90 mg/kg oral once daily for 3 weeks
[7] = 20 mg/kg oral once daily for 3 weeks
[8] = 40 mg/kg oral once daily for 3 weeks

## Cc1nc(Nc2ncc(C(=O)Nc3c(C)cccc3Cl)s2)cc(N2CCN(CCO)CC2)n1 [Dasatinib]
[1]
  GI50: 312 nM

## Cc1ccc(NC(=O)c2ccc(CN3CCN(C)CC3)cc2)cc1Nc1nccc(-c2cccnc2)n1 [Imatinib, reference compound]
[2]; [6]
  Spleen/body weight ratio % of control: 97.7%
  Spleen/body weight ratio Inhibition (%): 2.3%
[1]
  GI50: 17100 nM
[3]
  growth of neoplastic mast cells with c-KIT D816V: failed to inhibit the growth
[4]
  growth of neoplastic mast cells with wt KIT or F522C KIT: counteract the growth
[5]; [6]
  Tumor growth inhibition (TGI) (%) Tumor weight: 7.8%

## Cc1ccc(C(=O)Nc2ccc(CN3CCN(C)CC3)c(C(F)(F)F)c2)cc1C#Cc1cnc2cccnn12 [Ponatinib]
[1]
  GI50: 194 nM

## CCN(CC)CCNC(=O)c1c(C)[nH]c(/C=C2\C(=O)Nc3ccc(F)cc32)c1C [Sunitinib, reference compound]
[2]; [7]
  Spleen/body weight ratio % of control: 104.3%
  Spleen/body weight ratio Inhibition (%): −4.3%
[2]; [8]
  Spleen/body weight ratio % of control: 102.7%
  Spleen/body weight ratio Inhibition (%): −2.7%
[1]
  GI50: 1300 nM
[5]; [7]
  Tumor growth inhibition (TGI) (%) Timor volume: 37.3%
  Tumor growth inhibition (TGI) (%) Tumor weight: 49.5%
[5]; [8]
  Tumor growth inhibition (TGI) (%) Timor volume: 46.2%
  Tumor growth inhibition (TGI) (%) Tumor weight: 47.9%
